# Source: patent publication US20220017471A1, “FUNCTIONALITY INDEPENDENT LABELING OF ORGANIC COMPOUNDS” (Shanghai Tech University, priority 2018, published 2022)
# Counter-ions that a name gives are not always drawn.
# What was measured:
# [1] = molecular target: T1, heat shock 70 kDa protein (HSP70) (Homo sapiens, UniProt P0DMV8); assay: nDEL affinity selection against HSP70 (enrichment fold by deep sequencing); type: binding; settings: ratio of normalized sequencing counts in presence and absence of target protein; DNA-encoded compound
# T1 construct: purchased Sino Biological 11660-H07H
# Experimental: (§1) The panning procedure for these two soluble protein were the same. 5 μg of target protein was mixed with Ni-charged MagBeads (GenScript, Cat. #L00295), 5 nM DEL library and 10 μg/mL Salmon sperm DNA. The final volume to adjusted to 100 μL. The mixture was rotated at room temperature for 1.5 h. After washing 5 times by phosphate-buffered saline supplemented 0.05% Tween-20 (PBST), the target protein binding chemical-DNA conjugations were eluted by heating at 95° C. for 10 min in 50 μL elution buffer (20 mM Tris, pH 7.4, 100 mM NaCl). The eluted DEL compounds were amplified by PCR using Takara PrimerSTAR Max DNA Polymerase (Takara, Cat. #R045A). Then the excess primers was removed by Hieff NGS™ smarter DNA clean beads (Yeasen, Cat. #12600E503) and evaluated on 4% DNA agarose gel. The amplified products was subjected for high-throughput sequencing using Illumina HiSeq X10 Analyzer.
# The combinatorial chemical library was constructed by three building block sub libraries, containing 6, 46 and 46 chemical building blocks respectively for the first, second and third building block libraries, respectively. Each building block was encoded by a 10-base pair (bp) DNA sequence. The natural products were encoded by a 30-bp DNA sequence, same length as the combinatorial chemical library DNA codes. […] After sequencing, the Illumina adaptors around the DNA coding sequences were trimmed by CLC genomics workbench version 12 (Qiagen). The left DNA coding sequences were 30 bp in length corresponding to the three DNA sequences of building blocks in 3 rounds of “split-pool” iterations. For each sample, the DNA coding sequences were mapped to the reference DNA encoding compound library. No mismatch was allowed in the mapping. The coding sequences were counted for all the compounds across different samples. The total read-counts of all the compounds in a given sample were calculated. The read-counts for each individual compound were divided by the total counts, multiplied with a constant of 100000.
# (§2) NormalizedCountCompoundM,SampleA=CountCompoundM,SampleA/(TotalCountSampleA)*100000
# The fold changes of each compound in the after-selection library comparing to the reference library were calculated.
# (§3) FoldChangeCompoundM=NormalizedCountCompoundM,SampleA/NormalizedCountCompoundM,Ref
# (§4) The hit criteria of nDEL screening take into account of both the normalized enrichment fold values (y-axis) and deep sequencing read counts (x-axis). Compounds with read counts less than 10 are considered unreliable, thus they are eliminated immediately from DEL before on-target screening. For each DEL library, a baseline enrichment fold is recorded in the absence of target protein, and a normalized enrichment fold value can be calculated for each DEL compound in the library. The cutoff for hits identification is based on a simplified statistical analysis of a highly diverse population of data, which is the sum of average value of enrichment-folds of the whole library (μ) plus 3 times of the standard deviation (σ).
# Two target proteins with different cellular locations and biophysical properties were used in nDEL screens. […] The known functional binders for these targets were included in nDEL as internal positive controls, e.g., oridonin for HSP70 and derivatives of olaparib (F001, F002, F003 and F006) for PARP-1. To account for the non-uniform distribution of DNA barcodes in nDEL, a blank screen of nDEL in the absence of target proteins but presence of immobilization matrix beads was carried out first and followed by deep-sequencing to establish the baseline distribution of barcodes in the library. All screening data were analyzed using the method described by Decurtins et al., Nat Protoc. […] The corresponding DNA sequence of each nDEL compound were tallied based on its sequencing counts. The enrichment fold is calculated as the ratio of normalized sequencing counts in the presence and absence of target protein.
# [2] = molecular target: T2, poly [ADP-ribose] polymerase 1 (PARP1) (Homo sapiens, UniProt P09874); assay: nDEL affinity selection against PARP-1 (enrichment fold by deep sequencing); type: binding; settings: for Fold Change, enrichment folds for PARP-1 binder selection: ratio of normalized sequencing counts in presence and absence of target protein, DNA-encoded compound
# T2 construct: purchased Sino Biological 11040-H08B
# Experimental: as §1, with “The his-tag fused recombinant human PARP-1 (Sino Biological, Cat. #11040-H08B) and human-HSP70 (Sino Biological, Cat. #11660-H07H) were obtained from commercial source. The panning” for “The panning”
# The combinatorial chemical library was constructed by three building block sub libraries, containing 6, 46 and 46 chemical building blocks respectively for the first, second and third building block libraries, respectively. Each building block was encoded by a 10-base pair (bp) DNA sequence. The natural products were encoded by a 30-bp DNA sequence, same length as the combinatorial chemical library DNA codes. All the possible combinations (combinatorial chemical compounds) between these three sub libraries were generated by an inhouse java program, which generated a reference DNA encoding library contains 12696 DNA encoding sequences. After sequencing, the Illumina adaptors around the DNA coding sequences were trimmed by CLC genomics workbench version 12 (Qiagen). The left DNA coding sequences were 30 bp in length corresponding to the three DNA sequences of building blocks in 3 rounds of “split-pool” iterations. For each sample, the DNA coding sequences were mapped to the reference DNA encoding compound library. No mismatch was allowed in the mapping. The coding sequences were counted for all the compounds across different samples. The total read-counts of all the compounds in a given sample were calculated. The read-counts for each individual compound were divided by the total counts, multiplied with a constant of 100000.
# as §2
# The fold changes of each compound in the after-selection library comparing to the reference library were calculated. For example, if SampleA and Reference library were compared, for the fold change of CompoundM was calculated as:
# as §3, §4
# Two target proteins with different cellular locations and biophysical properties were used in nDEL screens. […] The known functional binders for these targets were included in nDEL as internal positive controls, e.g., oridonin for HSP70 and derivatives of olaparib (F001, F002, F003 and F006) for PARP-1.
Compound,"Enrichment Fold, HSP70 binder selection [1]","Fold Change, enrichment folds for PARP-1 binder selection [2]","Selected among enriched chemicals in PARP-1 nDEL screening ([2]; hit selection, FIG. 20(b), FIG. 21)"
(+)-Catechin Hydrate,3.8,,
CC(=O)c1c(O)cc(O)cc1O [Phloracetophenone],3.5,,
COC(=O)c1ccc(O)c(O)c1 [Methyl protocatechuate],3.6,,
Cc1c(F)cccc1NC(=O)Nc1ccc(Cl)c(S(=O)(=O)[C@H]2CCCNC2)c1O [Danirixin],2.9,,
"O=C(O[C@@H]1Cc2c(O)cc(O)cc2O[C@@H]1c1ccc(O)c(O)c1)c1cc(O)c(O)c(O)c1 [(−)-Epicatechin gallate, (−)- Epicatechingallate]",5.0,2.81,
CNCC(O)c1ccc(O)cc1 (stereo not drawn) [Synephrine],3.2,2.17,
CC1=CC(=O)c2c(O)cccc2C1=O [Plumbagin],4.4,2.97,
C[C@@H]1O[C@@H](O[C@H]2[C@H](Oc3cc(O)c4c(c3)O[C@H](c3ccc(O)cc3)CC4=O)O[C@H](CO)[C@@H](O)[C@@H]2O)[C@H](O)[C@H](O)[C@H]1O [Naringin],4.5,2.17,selected
O=c1cc(-c2ccccc2)oc2cc(O)c(O)c(O)c12 [Baicalein],3.6,,
O=C1c2ccccc2C(=O)c2c1ccc(O)c2O [Alizarin],4.3,2.02,
C[C@H]1[C@H](OC(=O)CCC(=O)O)O[C@@H]2O[C@@]3(C)CC[C@H]4[C@H](C)CC[C@@H]1[C@@]24OO3 [Artesunate],2.4,,
O=C1C[C@@H](c2ccc(O[C@@H]3O[C@H](CO)[C@@H](O)[C@H](O)[C@H]3O)cc2)Oc2cc(O)ccc21 [Liquiritin],3.9,2.66,
O=c1ccc2cc(O)c(O)cc2o1 [Esculetin],4.1,,
COc1cc(C(=O)O[C@H]2[C@@H]3C=CO[C@@H](O[C@@H]4O[C@H](CO)[C@@H](O)[C@H](O)[C@H]4O)[C@@H]3[C@@]3(CO)O[C@@H]23)ccc1O [Picroside II],4.0,,
COc1cc2ccc(=O)oc2cc1O [Scopoletin],6.0,2.82,
COc1c(O)cc2c(c1O)[C@@H]1O[C@H](CO)[C@@H](O)[C@H](O)[C@H]1OC2=O [Bengenin],3.6,,
COC1=C[C@@H]2[C@@H]3Cc4ccc(OC)c(O)c4[C@]2(CCN3C)CC1=O [sinomenine],3.2,,
COc1ccc(-c2coc3cc(O)cc(O)c3c2=O)cc1 [Biochanin A],3.7,,

Compound,"Enrichment Fold, HSP70 binder selection [1]","Fold Change, enrichment folds for PARP-1 binder selection [2]","Selected among enriched chemicals in PARP-1 nDEL screening ([2]; hit selection, FIG. 20(b), FIG. 21)"
COc1cc2c(cc1O)CC[n+]1cc3c(OC)c(OC)ccc3cc1-2 [Jatrorrhizine],3.7,2.04,
O=C(CCc1ccc(O)cc1)c1c(O)cc(O)cc1O[C@@H]1O[C@H](CO)[C@@H](O)[C@H](O)[C@H]1O [Phlorizin],3.8,,
O=c1ccc2ccc(O)c(O)c2o1 [Daphnetin],3.9,2.17,
"O=c1c(O)c(-c2ccc(O)c(O)c2)oc2cc(O)cc(O)c12 [quercetin, Quercetin]",2.8,,
O=C1C[C@@H](c2ccc(O)cc2)Oc2cc(O)ccc21 [Liquiritigenin],2.7,,
c1coc(CNc2ncnc3[nH]cnc23)c1 [Kinetin],2.8,,
"Cc1ncc(CO)c(CO)c1O [Pyridoxine, reference compound]",3.4,,
COc1cc2ccc(=O)oc2c(O)c1O [Fraxetin],3.3,2.01,
O=c1ccc2ccc(O)cc2o1 [7-Hydroxycoumarin],4.2,,
"Oc1cc(O)c2c(c1)O[C@H](c1cc(O)c(O)c(O)c1)[C@H](O)C2 [Epigallocatechin, epigallocatechin]",4.3,2.53,
O=C(O)c1ccc(O)c(O)c1 [Protocatechuic acid],3.8,,
Oc1cc(O)c2c(c1)O[C@H](c1ccc(O)c(O)c1)[C@@H](O)C2 [(+) Catechin],2.7,,
c1ccc(CNc2ncnc3nc[nH]c23)cc1 [Benzyladenine],3.6,,
"COC(=O)Nc1nc2ccc(C(=O)c3cccs3)cc2[nH]1 [Nocodazole, reference compound]",3.9,2.06,
COc1cc2c(cc1O)CC[n+]1cc3c(OC)c(OC)ccc3cc1-2 [Jatrorrhizine hydrochloride],4.5,2.23,
"Cn1cnc2c1c(=O)[nH]c(=O)n2C [Theobromine, reference compound]",4.3,2.42,
O=c1c2ccccc2nc2n1CCc1c-2[nH]c2ccccc12 [rutaecarpin],3.2,,
"Cn1c(=O)c2c(ncn2CC(=O)O)n(C)c1=O [Theophylline-7-acetic acid, Theophylline-7-acetic acid, reference compound]",3.3,,
